Target: T1, recombinant human SAE enzyme (Homo sapiens, UniProt Q9UBT2)
T1 sequence (Q9UBT2 1-640): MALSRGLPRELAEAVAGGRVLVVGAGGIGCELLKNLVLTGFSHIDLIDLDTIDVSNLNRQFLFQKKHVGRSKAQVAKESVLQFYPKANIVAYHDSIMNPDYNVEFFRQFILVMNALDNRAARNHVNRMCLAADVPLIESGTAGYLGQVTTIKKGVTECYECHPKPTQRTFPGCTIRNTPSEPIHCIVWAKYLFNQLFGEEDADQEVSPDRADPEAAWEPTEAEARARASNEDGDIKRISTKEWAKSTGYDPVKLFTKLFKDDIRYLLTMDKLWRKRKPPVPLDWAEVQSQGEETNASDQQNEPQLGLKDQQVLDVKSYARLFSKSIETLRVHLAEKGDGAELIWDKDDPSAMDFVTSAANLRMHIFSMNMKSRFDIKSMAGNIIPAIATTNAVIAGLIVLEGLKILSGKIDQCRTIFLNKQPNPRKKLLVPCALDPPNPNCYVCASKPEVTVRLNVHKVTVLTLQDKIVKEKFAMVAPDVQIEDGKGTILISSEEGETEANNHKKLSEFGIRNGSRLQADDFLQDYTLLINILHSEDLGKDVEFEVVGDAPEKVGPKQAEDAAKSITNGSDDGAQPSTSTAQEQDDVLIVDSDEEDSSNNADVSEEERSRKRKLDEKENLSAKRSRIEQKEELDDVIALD
T1 sequence (Q9UBE0 1-346 partner): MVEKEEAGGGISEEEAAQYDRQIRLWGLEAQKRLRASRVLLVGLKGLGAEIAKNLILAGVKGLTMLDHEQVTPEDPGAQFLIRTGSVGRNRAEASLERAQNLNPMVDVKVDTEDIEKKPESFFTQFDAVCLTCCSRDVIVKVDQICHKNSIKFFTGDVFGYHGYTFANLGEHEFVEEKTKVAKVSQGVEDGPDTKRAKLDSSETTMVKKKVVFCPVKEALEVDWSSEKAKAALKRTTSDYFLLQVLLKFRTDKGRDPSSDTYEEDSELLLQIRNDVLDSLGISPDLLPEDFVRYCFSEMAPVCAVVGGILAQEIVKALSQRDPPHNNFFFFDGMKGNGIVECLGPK
Assay: SAE HTRF Enzyme Assay
Format: biochemical
Conditions: for IC50: class symbols A-C; for inhibition at 0.111 µM: read-out: Percent Inhibition
Method in brief: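 Reaction with 0.11 nM recombinant human SAE, 0.5 μM ATP, 0.01 μM Ubc9-GST, 0.125 μM Sumo-Flag in HEPES pH 7.5, MgCl2, GSH, BSA, 105 min at 24 °C. Stopped with EDTA/KF buffer carrying Eu-anti-Flag and anti-GST-APC; HTRF read after 2 h; % inhibition or IC50.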

[1] = compound concentration 0.111 μM

Structure (SMILES)	IC50	inhibition at 0.111 µM [1]	Percent Inhibition (compound concentration 0.111 μM, 0.111 µM)
NS(=O)(=O)OC[C@H]1C[C@@H](Nc2ncncc2C(=O)c2ccn(Cc3cccc(F)c3)n2)[C@H](O)[C@@H]1O [Compound I-123, {(1R,2R,3S,4R)-4-[(5-{[1-(3-fluorobenzyl)-1H-pyrazol-3-yl]carbonyl}pyrimidin-4-yl)amino]-2,3-dihydroxycyclopentyl}methyl sulfamate]	< 10 nM	100%	–
NS(=O)(=O)OC[C@H]1C[C@@H](Nc2ncncc2C(=O)c2ccn(Cc3ccc(Cl)c(Br)c3)n2)C[C@@H]1O [Compound I-179, {(1R,2S,4R)-4-[(5-{[1-(3-bromo-4-chlorobenzyl)-1H-pyrazol-3-yl]carbonyl}pyrimidin-4-yl)amino]-2-hydroxycyclopentyl}methyl sulfamate]	< 10 nM	> 99%	–
CC(C)n1ccc(C(=O)c2cncnc2N[C@@H]2C[C@H](COS(N)(=O)=O)[C@@H](O)[C@H]2O)n1 [Compound I-220, [(1R,2R,3S,4R)-2,3-dihydroxy-4-({5-[(1-isopropyl-1H-pyrazol-3-yl)carbonyl]pyrimidin-4-yl}amino)cyclopentyl]methyl sulfamate]	10 to 100 nM	57%	–
NS(=O)(=O)OC[C@H]1C[C@@H](Nc2ncncc2C(=O)c2ccn(Cc3ccc(C(F)(F)F)cc3)n2)[C@H](O)[C@@H]1O [Compound I-167, [(1R,2R,3S,4R)-2,3-dihydroxy-4-{[5-({1-[4-(trifluoromethyl)benzyl]-1H-pyrazol-3-yl}carbonyl)pyrimidin-4-yl]amino}cyclopentyl]methyl sulfamate]	< 10 nM	98%	–
CC(c1cccc(Br)n1)n1ccc(C(=O)c2cncnc2N[C@@H]2C[C@H](COS(N)(=O)=O)[C@@H](O)C2)n1 (single isomer, unassigned) [Compound I-366, [(1R,2S,4R)-4-{[5-({1-[(1S)-1-(6-bromopyridin-2-yl)ethyl]-1H-pyrazol-3-yl}carbonyl)pyrimidin-4-yl]amino}-2-hydroxycyclopentyl]methyl sulfamate or [(1R,2S,4R)-4-{[5-({1-[(1R)-1-(6-bromopyridin-2-yl)ethyl]-1H-pyrazol-3-yl}carbonyl)pyrimidin-4-yl]amino}-2-hydroxycyclopentyl]methyl sulfamate]	10 to 100 nM	92%	–
Cc1cc(C(=O)c2cncnc2N[C@@H]2C[C@H](COS(N)(=O)=O)[C@@H](O)C2)nn1Cc1ccc(Cl)o1 [Compound I-101, [(1R,2S,4R)-4-{[5-({1-[(5-chloro-2-furyl)methyl]-5-methyl-1H-pyrazol-3-yl}carbonyl)pyrimidin-4-yl]amino}-2-hydroxycyclopentyl]methyl sulfamate]	< 10 nM	100%	–
NS(=O)(=O)OC[C@H]1C[C@@H](Nc2ncncc2C(=O)c2ccn(CCc3c[nH]c4ccccc34)n2)[C@H](O)[C@@H]1O [Compound I-33, [(1R,2R,3S,4R)-2,3-dihydroxy-4-{[5-({1-[2-(1H-indol-3-yl)ethyl]-1H-pyrazol-3-yl}carbonyl)pyrimidin-4-yl]amino}cyclopentyl]methyl sulfamate]	< 10 nM	98%	–
CCC(c1cccc(Br)c1)n1ccc(C(=O)c2cncnc2N[C@@H]2C[C@H](COS(N)(=O)=O)[C@@H](O)[C@@H]2F)c1 (single isomer, unassigned) [Compound I-356, [(1R,2R,3R,4R)-4-{[5-({1-[(1S)-1-(3-bromophenyl)propyl]-1H-pyrrol-3-yl}carbonyl)pyrimidin-4-yl]amino}-3-fluoro-2-hydroxycyclopentyl]methyl sulfamate or [(1R,2R,3R,4R)-4-{[5-({1-[(1R)-1-(3-bromophenyl)propyl]-1H-pyrrol-3-yl}carbonyl)pyrimidin-4-yl]amino}-3-fluoro-2-hydroxycyclopentyl]methyl sulfamate]	10 to 100 nM	–	85%
NS(=O)(=O)OC[C@H]1C[C@@H](Nc2ncncc2C(=O)c2ccn(Cc3ccc(C(F)F)o3)c2)[C@@H](F)[C@@H]1O [Compound I-87, [(1R,2R,3R,4R)-4-({5-[(1-{[5-(difluoromethyl)-2-furyl]methyl}-1H-pyrrol-3-yl)carbonyl]pyrimidin-4-yl}amino)-3-fluoro-2-hydroxycyclopentyl]methyl sulfamate]	< 10 nM	> 99%	–
NS(=O)(=O)OC[C@H]1C[C@@H](Nc2ncncc2C(=O)c2ccn(Cc3ccc(F)c(OC(F)(F)F)c3)n2)[C@H](O)[C@@H]1O [Compound I-134, [(1R,2R,3S,4R)-4-{[5-({1-[4-fluoro-3-(trifluoromethoxy)benzyl]-1H-pyrazol-3-yl}carbonyl)pyrimidin-4-yl]amino}-2,3-dihydroxycyclopentyl]methyl sulfamate]	< 10 nM	98%	–
Cc1cc(C(=O)c2cncnc2N[C@@H]2C[C@H](COS(N)(=O)=O)[C@@H](O)C2)nn1Cc1cccc(Br)n1 [Compound I-238, [(1R,2S,4R)-4-{[5-({1-[(6-bromopyridin-2-yl)methyl]-5-methyl-1H-pyrazol-3-yl}carbonyl)pyrimidin-4-yl]amino}-2-hydroxycyclopentyl]methyl sulfamate]	< 10 nM	99%	–
Cc1cc(Cn2ccc(C(=O)c3cncnc3N[C@@H]3C[C@H](COS(N)(=O)=O)[C@@H](O)[C@@H]3F)c2)no1 [Compound I-297, [(1R,2R,3R,4R)-3-fluoro-2-hydroxy-4-{[5-({1-[(5-methylisoxazol-3-yl)methyl]-1H-pyrrol-3-yl}carbonyl)pyrimidin-4-yl]amino}cyclopentyl]methyl sulfamate]	< 10 nM	97%	–
NS(=O)(=O)OC[C@H]1C[C@@H](Nc2ncncc2C(=O)c2cc(Cl)n(Cc3cc(C(F)(F)F)on3)c2)[C@@H](F)[C@@H]1O [Compound I-148, [(1R,2R,3R,4R)-4-({5-[(5-chloro-1-{[5-(trifluoromethyl)isoxazol-3-yl]methyl}-1H-pyrrol-3-yl)carbonyl]pyrimidin-4-yl}amino)-3-fluoro-2-hydroxycyclopentyl]methyl sulfamate]	10 to 100 nM	85%	–
NS(=O)(=O)OC[C@H]1C[C@@H](Nc2ccncc2C(=O)c2ccn(Cc3ccc(F)c(C(F)(F)F)c3)n2)C[C@@H]1O [Compound I-263, [(1R,2S,4R)-4-{[3-({1-[4-fluoro-3-(trifluoromethyl)benzyl]-1H-pyrazol-3-yl}carbonyl)pyridin-4-yl]amino}-2-hydroxycyclopentyl]methyl sulfamate]	< 10 nM	91%	–
CC(c1cccc(Br)c1)n1ccc(C(=O)c2cncnc2N[C@@H]2C[C@H](COS(N)(=O)=O)[C@@H](O)[C@@H]2F)c1 (single isomer, unassigned) [Compound I-192, [(1R,2R,3R,4R)-4-{[5-({1-[(1S)-1-(3-bromophenyl)ethyl]-1H-pyrrol-3-yl}carbonyl)pyrimidin-4-yl]amino}-3-fluoro-2-hydroxycyclopentyl]methyl sulfamate or [(1R,2R,3R,4R)-4-{[5-({1-[(1R)-1-(3-bromophenyl)ethyl]-1H-pyrrol-3-yl}carbonyl)pyrimidin-4-yl]amino}-3-fluoro-2-hydroxycyclopentyl]methyl sulfamate]	< 10 nM	98%	–
NS(=O)(=O)OC[C@H]1C[C@@H](Nc2ncncc2C(=O)c2ccn(Cc3cc(Br)ccc3Cl)n2)[C@@H](F)[C@@H]1O [Compound I-207, {(1R,2R,3R,4R)-4-[(5-{[1-(5-bromo-2-chlorobenzyl)-1H-pyrazol-3-yl]carbonyl}pyrimidin-4-yl)amino]-3-fluoro-2-hydroxycyclopentyl}methyl sulfamate]	< 10 nM	99%	–
NS(=O)(=O)OC[C@H]1C[C@@H](Nc2ncncc2C(=O)c2ccn(CC#Cc3ccco3)n2)C[C@@H]1O [Compound I-199, [(1R,2S,4R)-4-{[5-({1-[3-(2-furyl)prop-2-yn-1-yl]-1H-pyrazol-3-yl}carbonyl)pyrimidin-4-yl]amino}-2-hydroxycyclopentyl]methyl sulfamate]	< 10 nM	94%	–
Cc1cn(Cc2cccc(Br)c2)cc1C(=O)c1cncnc1N[C@@H]1C[C@H](COS(N)(=O)=O)[C@@H](O)[C@@H]1F [Compound I-149, {(1R,2R,3R,4R)-4-[(5-{[1-(3-bromobenzyl)-4-methyl-1H-pyrrol-3-yl]carbonyl}pyrimidin-4-yl)amino]-3-fluoro-2-hydroxycyclopentyl}methyl sulfamate]	10 to 100 nM	85%	–

Reference: US9695154B2, “Heteroaryl inhibitors of sumo activating enzyme” (MILLENNIUM PHARMACEUTICALS, INC., priority 2013, dated 2017)
